In brackets after ≈: the same amount, converted by molar mass.
Experiments:
Assay in all cases: antimicrobial activity, MIC, standard process of Japan Society of Chemotherapy
Assay type in all cases: cell-based
[1] = test system: E. coli, NIHJ; conditions: for MIC: Escherichia coli, read-out: minimum growth inhibitory concentration (MIC)
Protocol: (§1) The antimicrobial activities of the compounds of the present invention were determined according to a standard process designated by the Japan Society of Chemotherapy and the minimum growth inhibitory concentrations (MIC) (μg/ml) the compounds were determined.

[2] = test system: Pr. mirabilis, IF03849; conditions: for minimum growth inhibitory concentration (MIC): Pr. mirabilis; for MIC: Proteus mirabilis, IF03849, Pr. mirabilis, read-out: minimum growth inhibitory concentration (MIC)
Protocol: as §1

[3] = test system: Pr. vulgaris, 3167; conditions: for minimum growth inhibitory concentration (MIC): Pr. vulgaris; for MIC: Proteus vulgaris, 3167, Pr. vulgaris, read-out: minimum growth inhibitory concentration (MIC)
Protocol: as §1

[4] = test system: Ps. aeruginosa, 2063; conditions: for minimum growth inhibitory concentration (MIC): Ps. aeruginosa; for MIC: Pseudomonas aeruginosa, 2063, Ps. aeruginosa, read-out: minimum growth inhibitory concentration (MIC)
Protocol: as §1

[5] = test system: Ps. aeruginosa, 2128; conditions: for minimum growth inhibitory concentration (MIC): Ps. aeruginosa; for MIC: Pseudomonas aeruginosa, 2128, Ps. aeruginosa, read-out: minimum growth inhibitory concentration (MIC)
Protocol: as §1

[6] = test system: Ps. cepacia, IID1340; conditions: for minimum growth inhibitory concentration (MIC): Ps. cepacia; for MIC: Burkholderia cepacia, IID1340, Ps. cepacia, read-out: minimum growth inhibitory concentration (MIC)
Protocol: as §1

[7] = test system: Ps. maltophilia, IID1275; conditions: for minimum growth inhibitory concentration (MIC): Ps. maltophilia; for MIC: Stenotrophomonas maltophilia, IID1275, Ps. maltophilia, read-out: minimum growth inhibitory concentration (MIC)
Protocol: as §1

[8] = test system: S. aureus, 209P; conditions: for MIC: Staphylococcus aureus, read-out: minimum growth inhibitory concentration (MIC)
Protocol: as §1

[9] = test system: S. epidermidis, 56500; conditions: for minimum growth inhibitory concentration (MIC): S. epidermidis; for MIC: Staphylococcus epidermidis, 56500, S. epidermidis, read-out: minimum growth inhibitory concentration (MIC)
Protocol: as §1

[10] = test system: Ser. marcescens, 13001; conditions: for minimum growth inhibitory concentration (MIC): Ser. marcescens; for MIC: Serratia marcescens, 13001, Ser. marcescens, read-out: minimum growth inhibitory concentration (MIC)
Protocol: as §1

[11] = test system: Sh. flexneri, 2a5503; conditions: for MIC: Shigella flexneri, read-out: minimum growth inhibitory concentration (MIC)
Protocol: as §1

[12] = test system: Str. faecalis, ATCC 19433; conditions: for minimum growth inhibitory concentration (MIC): Str. faecalis; for MIC: Enterococcus faecalis, ATCC19433, Str. faecalis, read-out: minimum growth inhibitory concentration (MIC)
Protocol: as §1

[13] = test system: Str. pyogenes, G-36; conditions: for minimum growth inhibitory concentration (MIC): Str. pyogenes; for MIC: Streptococcus pyogenes, G36, Str. pyogenes, read-out: minimum growth inhibitory concentration (MIC)
Protocol: as §1

Compound | minimum growth inhibitory concentration (MIC) [2] [mg/L] | minimum growth inhibitory concentration (MIC) [3] [mg/L] | minimum growth inhibitory concentration (MIC) [4] [mg/L] | minimum growth inhibitory concentration (MIC) [5] [mg/L] | minimum growth inhibitory concentration (MIC) [6] [mg/L] | minimum growth inhibitory concentration (MIC) [12] [mg/L] | minimum growth inhibitory concentration (MIC) [13] [mg/L] | MIC [1] [mg/L] | MIC [2] [mg/L] | MIC [3] [mg/L] | MIC [4] [mg/L] | MIC [5] [mg/L] | MIC [6] [mg/L] | MIC [7] [mg/L] | MIC [8] [mg/L] | MIC [9] [mg/L] | MIC [10] [mg/L] | MIC [11] [mg/L] | MIC [12] [mg/L] | MIC [13] [mg/L] | other results
CCC(N)C1CCN(c2c(F)cc3c(=O)c(C(=O)O)cn(C4CC4)c3c2F)C1 (stereo not shown) [Example 22] | 0.10 | ≤ 0.05 | 0.39 | 0.20 | 0.20 | 0.20 | 0.20 |  |  |  |  |  |  |  |  |  |  |  |  |  | minimum growth inhibitory concentration (MIC) [1]: ≤ 0.05 mg/L; minimum growth inhibitory concentration (MIC) [7]: 0.20 mg/L; minimum growth inhibitory concentration (MIC) [8]: ≤ 0.05 mg/L; minimum growth inhibitory concentration (MIC) [9]: ≤ 0.05 mg/L; minimum growth inhibitory concentration (MIC) [10]: 0.10 mg/L; minimum growth inhibitory concentration (MIC) [11]: ≤ 0.05 mg/L
CCC(N)C1CCN(c2c(F)cc3c(=O)c(C(=O)O)cn(CC)c3c2F)C1 (stereo not shown) [Example 10, 7-[3-(1-Aminopropyl)-1-pyrrolindinyl]-1-ethyl-6,8-difluoro-1,4-dihydro-4-oxoquinoline-3-carboxylic acid] |  |  |  |  |  |  |  | ≤ 0.05 | 0.2 (≈ 0.527 µM) | 0.1 (≈ 0.264 µM) | 1.56 (≈ 4.11 µM) | 6.39 (≈ 16.8 µM) | 1.56 (≈ 4.11 µM) | 0.39 (≈ 1.03 µM) | ≤ 0.05 | 0.1 (≈ 0.264 µM) | 0.2 (≈ 0.527 µM) | ≤ 0.05 | ≤ 0.05 | ≤ 0.05 | 
CCn1cc(C(=O)O)c(=O)c2cc(F)c(N3CCC(C4(N)CC4)C3)c(F)c21 (stereo not shown) [Example 16, 7-[3-(1-aminocyclopropyl)-1-pyrrolidinyl]-1-ethyl-6,8-difluoro-1,4-dihydro-4-oxoquinoline-3-carboxylic acid] |  |  |  |  |  |  |  | ≤ 0.05 | 0.39 (≈ 1.03 µM) | 0.2 (≈ 0.53 µM) | 1.56 (≈ 4.13 µM) | 0.39 (≈ 1.03 µM) | 0.78 (≈ 2.07 µM) | 0.39 (≈ 1.03 µM) | ≤ 0.05 | 0.2 (≈ 0.53 µM) | 0.39 (≈ 1.03 µM) | ≤ 0.05 | 0.39 (≈ 1.03 µM) | 0.2 (≈ 0.53 µM) | 
CC(N)C1CCN(c2nc3c(cc2F)c(=O)c(C(=O)O)cn3C2CC2)C1 (stereo not shown) [Example 5, 7-[3-(1-Aminoethyl)-1-pyrrolidinyl]-1-cyclopropyl-6-fluoro-1,4-dihydro-4-oxo-1,8-naphthyridine-3-carboxylic acid] | 0.39 |  | 0.78 | 6.20 | 1.56 |  |  | ≤ 0.05 |  | 0.05 (≈ 0.139 µM) |  |  |  | 0.39 (≈ 1.08 µM) | ≤ 0.05 | ≤ 0.05 |  | ≤ 0.05 | 0.2 (≈ 0.555 µM) | 0.39 (≈ 1.08 µM) | minimum growth inhibitory concentration (MIC) [10]: 0.20 mg/L
1-Cyclopropyl-6,8-difluoro-1,4-dihydro-7-[3-(2S)-pyrrolidinyl)-1-pyrrolidinyl)-1-pyrrolidinyl]-4-oxoquinoline-3-carboxylic acid [Example 17] | 0.20 | 0.10 | 0.39 | 0.20 | 0.78 | 0.10 | 0.10 |  |  |  |  |  |  |  |  |  |  |  |  |  | minimum growth inhibitory concentration (MIC) [1]: ≤ 0.05 mg/L; minimum growth inhibitory concentration (MIC) [7]: 0.39 mg/L; minimum growth inhibitory concentration (MIC) [8]: ≤ 0.05 mg/L; minimum growth inhibitory concentration (MIC) [9]: 0.10 mg/L; minimum growth inhibitory concentration (MIC) [10]: 0.10 mg/L; minimum growth inhibitory concentration (MIC) [11]: ≤ 0.05 mg/L
CNC(C)C1CCN(c2c(F)cc3c(=O)c(C(=O)O)cn(C4CC4)c3c2F)C1 (single isomer, unassigned) [Example 6, 1-Cyclopropyl-6,8-difluoro-1,4-dihydro-7-[3-(1-methylaminoethyl)-1-pyrrolidinyl]-4-oxoquinoline-3-carboxylic acid] | 0.20 |  |  |  |  | 0.20 | 0.20 | ≤ 0.05 |  | 0.1 (≈ 0.255 µM) | 0.39 (≈ 0.996 µM) | 0.2 (≈ 0.511 µM) | 0.78 (≈ 1.99 µM) | 0.2 (≈ 0.511 µM) | ≤ 0.05 | 0.1 (≈ 0.255 µM) | 0.2 (≈ 0.511 µM) | ≤ 0.05 |  |  | 
CNC(C)(C)C1CCN(c2c(F)cc3c(=O)c(C(=O)O)cn(C4CC4)c3c2F)C1 (stereo not shown) [Example 14, 1-Cyclopropyl-6,8-difluoro-1,4-dihydro-7-[3-(1-methyl-1-methylamino)ethyl-1-pyrrolidinyl]-4-oxoquinoline-3-carboxylic acid] |  |  |  |  |  |  |  | ≤ 0.05 | 0.2 (≈ 0.493 µM) | 0.2 (≈ 0.493 µM) | 3.13 (≈ 7.72 µM) | 0.39 (≈ 0.962 µM) | 1.56 (≈ 3.85 µM) | 0.39 (≈ 0.962 µM) | 0.2 (≈ 0.493 µM) | 0.2 (≈ 0.493 µM) | 0.39 (≈ 0.962 µM) | ≤ 0.05 | 0.1 (≈ 0.247 µM) | 0.1 (≈ 0.247 µM) | 
CC(N)C1CCN(c2nc3c(cc2F)c(=O)c(C(=O)O)cn3C2CC2)C1 (stereo not shown) [Example 18, 7-[3-(1-Aminoethyl)-1-pyrrolidinyl]-1-1-cyclopropyl-6-fluoro-1,4-dihydro-4-oxo-1,8-naphthylidine-3-carboxylic acid] | 0.20 | 0.10 | 0.39 | 0.20 | 0.39 | 0.20 | 0.39 |  |  |  |  |  |  |  |  |  |  |  |  |  | minimum growth inhibitory concentration (MIC) [1]: ≤ 0.05 mg/L; minimum growth inhibitory concentration (MIC) [7]: 0.20 mg/L; minimum growth inhibitory concentration (MIC) [8]: ≤ 0.05 mg/L; minimum growth inhibitory concentration (MIC) [9]: ≤ 0.05 mg/L; minimum growth inhibitory concentration (MIC) [10]: 0.20 mg/L; minimum growth inhibitory concentration (MIC) [11]: ≤ 0.05 mg/L
CCn1cc(C(=O)O)c(=O)c2cc(F)c(N3CCC(C(C)N)C3)c(F)c21 (single isomer, unassigned) [Example 3, 7-[3-(1-Aminoethyl)-1-pyrrolidinyl]-1-ethyl-6,8-difluoro-1,4-dihydro-4-oxoquinoline-3-carboxylic acid] |  | 0.20 |  |  |  | 0.39 | 0.39 | ≤ 0.05 | 0.2 (≈ 0.547 µM) |  | 0.39 (≈ 1.07 µM) | 0.2 (≈ 0.547 µM) | 1.56 (≈ 4.27 µM) | 0.78 (≈ 2.13 µM) | ≤ 0.05 |  | 0.2 (≈ 0.547 µM) | ≤ 0.05 |  |  | minimum growth inhibitory concentration (MIC) [9]: 0.20 mg/L
NC1(C2CCN(c3c(F)cc4c(=O)c(C(=O)O)cn(C5CC5)c4c3F)C2)CC1 (stereo not shown) [Example 15] |  |  |  |  |  |  |  | ≤ 0.05 | 0.2 (≈ 0.514 µM) | 0.1 (≈ 0.257 µM) | 0.39 (≈ 1 µM) | 0.2 (≈ 0.514 µM) | 0.39 (≈ 1 µM) | 0.2 (≈ 0.514 µM) | ≤ 0.05 | ≤ 0.05 | 0.2 (≈ 0.514 µM) | ≤ 0.05 | 0.2 (≈ 0.514 µM) | ≤ 0.05 | 

— patent US5416222A, “3-pyrrolidine methanamines wherein the alpha-carbon is substituted by 1 or 2 lower alkyl groups which are intermediates for pyridone-carboxylic acid derivatives” (Daiichi Seiyaku Co., Ltd., priority 1985, dated 1995)
